From publication PMC2995015 (Biochemistry, 2010)
Positions count from the first letter of the chain named.

Assays:
Assay type in all cases: cell-based
WT PMAT = target: T1, WT PMAT (Homo sapiens, UniProt Q7RTT9); assay: Uptake of uridine in the presence of NBMPR in stably transfected MDCK cells; conditions: 0.5 μM NBMPR, vs vector-transfected cells
T1 sequence (Q7RTT9 1-530): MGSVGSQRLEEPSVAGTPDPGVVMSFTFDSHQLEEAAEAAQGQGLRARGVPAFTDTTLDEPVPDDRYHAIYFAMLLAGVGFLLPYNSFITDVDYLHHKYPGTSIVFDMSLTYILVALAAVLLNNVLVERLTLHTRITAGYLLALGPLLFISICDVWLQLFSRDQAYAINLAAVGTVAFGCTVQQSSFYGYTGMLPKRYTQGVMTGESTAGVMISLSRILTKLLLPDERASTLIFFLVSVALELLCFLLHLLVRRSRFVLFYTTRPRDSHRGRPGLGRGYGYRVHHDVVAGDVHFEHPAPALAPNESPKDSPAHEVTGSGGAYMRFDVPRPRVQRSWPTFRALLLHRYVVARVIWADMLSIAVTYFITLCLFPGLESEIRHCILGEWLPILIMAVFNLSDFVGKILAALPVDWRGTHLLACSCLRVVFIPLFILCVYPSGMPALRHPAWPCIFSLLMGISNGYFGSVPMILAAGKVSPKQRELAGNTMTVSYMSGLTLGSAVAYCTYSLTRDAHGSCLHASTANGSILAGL

PMAT mutant Y85W [1] = target: T2, PMAT mutant Y85W (Homo sapiens, UniProt Q7RTT9, Y85W); assay: as above; conditions: 0.5 μM NBMPR, vs vector-transfected cells
T2 sequence (Q7RTT9 1-530 Y85W): T1 sequence (Q7RTT9 1-530) with Y85W

PMAT mutant Y112A = target: T3, PMAT mutant Y112A (Homo sapiens, UniProt Q7RTT9, Y112A); assay: as above; conditions: 0.5 μM NBMPR, vs vector-transfected cells
T3 sequence (Q7RTT9 1-530 Y112A): T1 sequence (Q7RTT9 1-530) with Y112A

PMAT mutant Y112S = target: T4, PMAT mutant Y112S (Homo sapiens, UniProt Q7RTT9, Y112S); assay: as above; conditions: 0.5 μM NBMPR, vs vector-transfected cells
T4 sequence (Q7RTT9 1-530 Y112S): T1 sequence (Q7RTT9 1-530) with Y112S

PMAT mutant Y85W [2] = target: T2, PMAT mutant Y85W; assay: Uridine inhibition of organic cation transport in stably transfected MDCK cells; conditions: uridine 1 mM; data not shown
PMAT wild type = target: T5, PMAT wild type (Homo sapiens, UniProt Q7RTT9); assay: Concentration-dependent transport kinetics in stably transfected MDCK cells; conditions: 1 min, 37°C
T5 sequence (Q7RTT9 1-530): T1 sequence (Q7RTT9 1-530)

PMAT mutant Y85W [3] = target: T2, PMAT mutant Y85W; assay: as above; conditions: for Km / Vmax: Y85W, MDCK cells, 1 min, 37°C
PMAT mutant Y112W [4] = target: T6, PMAT mutant Y112W (Homo sapiens, UniProt Q7RTT9, Y112W); assay: as above; conditions: for Km / Vmax: Y112W, MDCK cells, 1 min, 37°C
T6 sequence (Q7RTT9 1-530 Y112W): T1 sequence (Q7RTT9 1-530) with Y112W

PMAT mutant Y112W [5] = target: T6, PMAT mutant Y112W; assay: Single-concentration 3H-substrate uptake in stably transfected MDCK cells; conditions: MPP+ 1 μM, 5-HT 10 μM, dopamine 10 μM, 4 min, 37°C
PMAT mutant Y85W [6] = target: T2, PMAT mutant Y85W; assay: as above; conditions: MPP+ 1 μM, 5-HT 10 μM, dopamine 10 μM, 4 min, 37°C

Row | Compound | transport activity for uridine (WT PMAT) | transport activity for uridine (PMAT mutant Y85W [1]) | transport activity for uridine (PMAT mutant Y112A) | transport activity for uridine (PMAT mutant Y112S) | inhibitory effect on Y85W-mediated organic cations transport (PMAT mutant Y85W [2]) | Km (PMAT wild type) [µM] | Vmax (PMAT wild type) [nmol/mg protein/min] | increase in maximal velocity (Vmax) (PMAT mutant Y85W [3]; Y85W vs WT PMAT) [fold] | increase in transport efficiency (Vmax/Km) (PMAT mutant Y85W [3]; Y85W vs WT PMAT) | Km (PMAT mutant Y85W [3]) [µM] | Vmax (PMAT mutant Y85W [3]) [nmol/mg protein/min] | reduction in Vmax (PMAT mutant Y112W [4]; Y112W vs WT PMAT) [fold] | Km (PMAT mutant Y112W [4]) [µM] | Vmax (PMAT mutant Y112W [4]) [nmol/mg protein/min] | activity retained compared to cells expressing WT PMAT (PMAT mutant Y112W [5]) | transport activity compared to WT PMAT (PMAT mutant Y85W [6]) | transport efficiencies, % of the WT PMAT (PMAT mutant Y112W [4]; Y112W vs WT PMAT)
1 | O=c1ccn([C@@H]2O[C@H](CO)[C@@H](O)[C@H]2O)c(=O)[nH]1 [uridine] | no statistically significant transport activity | no statistically significant transport activity | no statistically significant transport activity | no statistically significant transport activity | no significant inhibitory effect | – | – | – | – | – | – | – | – | – | – | – | –
2 | C[n+]1ccc(-c2ccccc2)cc1 [MPP^+, 1-methyl-4-phenylpyridinium] | – | – | – | – | – | 42.2 ± 5 | 0.60 ± 0.04 | 1.6 | about 2 fold | 31.1 ± 6.9 | 0.94 ± 0.10 | 2.6 | 147 ± 36.3 | 0.23 ± 0.02 | less than 20% | significantly higher transport activity | –
3 | NCCc1ccc(O)c(O)c1 [Dopamine, dopamine] | – | – | – | – | – | 244 ± 16.2 | 4.12 ± 0.35 | – | – | 243 ± 30.4 | 3.87 ± 0.14 | – | 88 ± 6.8 | 1.03 ± 0.09 | 50–60% | – | 60–70%
4 | NCCc1c[nH]c2ccc(O)cc12 [Serotonin, serotonin] | – | – | – | – | – | 168 ± 18.9 | – | – | – | 308 ± 50.8 | – | – | 104 ± 13.2 | 1.04 ± 0.13 | – | – | –
